# In paper PMC9369794 (Molecules, 2022):
# Where a name gives a salt, the structure may show the parent alone.
# Tests used:
# [1] = TEAC assay using ABTS radical; details: 6 min, ratio of slopes to trolox (melatonin dissolved in EtOH); for TEAC from DMSO: stock in DMSO diluted with PBS pH 7.4, 37 °C; for TEAC from THF: stock in THF diluted with PBS pH 7.4, 37 °C
# Protocol: This method uses a redox reaction between ABTS^•+ radical cation and the examined antioxidants, which act as the reducing agents. […] As the carotenoids and the conjugates are poorly soluble in water, they were dissolved first either in small amounts of freshly distilled tetrahydrofuran (THF) or in dimethylsulfoxide (DMSO), and these stock solutions were diluted with phosphate-buffered saline (PBS) to the final nominal concentration.
# The TEAC values were determined in isotonic phosphate buffer of pH 7.4. The buffer solution was made by dissolving 9.55 g of DPBS powder in distilled water to form 1L of solution (composition: 0.138 M NaCl, 0.0027 M KCl, 0.0081 M Na2HPO4, 0.0015 M KH2PO4). The assay was performed according to a literature process with slight modifications. The ABTS^•+ radical cation was produced by reacting 7 mM 2,2′-azino-bis(3-ethylbenzothiazoline-6-sulfonic acid) and 2.45 mM potassium persulfate in water. The stock ABTS^•+ solution was prepared 12–16 h before the experiments, and stored at room temperature in dark. The absorbance of the ABTS^•+ solution was set to 0.70 ± 0.05 at 734 nm by a ca. 100-fold dilution with phosphate-buffered saline (PBS). […] The stock solutions were diluted with PBS such that equal amounts of the diluted solutions were added to the ABTS^•+ reagent to obtain final antioxidants concentrations of 0.3125, 0.625, 1.25, 2.50, 3.75, 5 μM, respectively. In the blank (0 μM), the solutions of the antioxidants were substituted with THF or DMSO.
# The antioxidants were incubated with ABTS^•+ solution at 37 °C for 6 min. During the reaction of ABTS^•+ with the antioxidants the absorbance of the solution decreases. The percentage inhibition of absorbance at 734 nm was calculated as (A0 − Aantioxidant)/A0, where A0 is the absorbance of the ABTS^•+ solution and Aantioxidant is the absorbance measured after the addition of the antioxidant. The determinations were carried out at each concentration in triplicate. The calculated values were plotted against the final concentration of the antioxidants. The slopes of the curves were compared with that for trolox, the TEAC value is the ratio of the slopes for the antioxidant and for trolox.
# [2] = FRAP assay for the antioxidant capacity; set-up: key to FRAP: slope of concentration-absorbance line divided by Trolox slope; details: stock in THF, acetate buffer pH 3.0, 37 °C, 15 min; ratio of slopes to trolox (melatonin in EtOH)
# Protocol: In the FRAP method the antioxidant reduces Fe^3+ to Fe^2+ in an acidic medium. These experiments were performed in an acetate buffer of pH 3.0, the stock solutions of the examined antioxidants were prepared in THF. The antioxidant capacities were compared to that of Trolox as a standard, just like in the ABTS assays.
# A modified literature process was used. The FRAP reagent should also be prepared freshly each day. 2,4,6-Tris(2-pyridyl)-s-triazin (TPTZ) was dissolved in a 200 mM HCl solution and diluted with water to get a final 40 mM HCl and 10 mM TPTZ concentration. For the preparation of the FRAP reagent 30 mL of 20 mM FeCl3 solution and 30 mL of 10 mM TPTZ solution were mixed, and 300 mL of 300 mM acetate buffer with pH 3.0 was added (a pH lower than usual was used to avoid the precipitation of the TPTZ). The FRAP reagent was incubated at 37 °C for 15 min. 150 μL of antioxidant dissolved in THF was mixed with 2.85 mL FRAP reagent solution, and incubated at 37 °C for 15 min in dark. Measurements were carried out at each antioxidant concentration (0, 7.5; 10; 12.5; 15; 17.5 μM final concentration) in triplicate. In the 0 μM solution the antioxidant solution was substituted with acetate buffer (pH 3.0). The FRAP was determined at 600 nm: the absorbance values were plotted as a function of concentration of the sample compounds and that of Trolox for the standard reference data. The FRAP values were calculated as in the ABTS assays, i.e., the slope of the concentration-absorbance lines for the carotenoid derivatives was divided by that for the trolox.
# [3] = Hydrodynamic diameter and colloidal stability of aggregates by dynamic light scattering; assay type: physicochemical; details: for mean size (hydrodynamic diameter) / zeta potential: 37 °C; for PDI: sd^2/mean size^2
# Protocol: In contrary, all spectra gave a hypsochromic shift and loss of fine-structure when the DMSO solutions were diluted with PBS, which refers to the formation of H-type (card-pack) aggregates (Figures S1–S12). Since DMSO-containing aqueous systems are more suitable for biological studies, we examined these solution by dynamic light scattering (DLS) spectroscopy to gain more information about the particles. The concentrations of the examined solutions were the same as used in the ABTS/TEAC measurements (0.3125–5.00 μM, see next section).
# Size determination of aggregates and the colloidal stability of the sample dispersions were determined by dynamic light scattering measurements, where the hydrodynamic diameter of particles, and zeta potential values were collected. The number-weighted size distribution indicated one main peak in each case, the polydispersity index (PDI) was calculated as sd^2/mean size^2. For the particle size analysis Malvern Zetasizer Nano S instrument and for the zeta potential determination Malvern Zetasizer Nano Z instrument were used (Malvern Panalytical Ltd., Great Malvern, Worcestershire, UK). The measurements were carried out in autocorrelation mode, and the following parameters were kept constant: scattering angle 173°, attenuator 11 and its factor 0.0146, measurement position 4.65 mm. The concentrations of sample dispersions were between 0.3125 and 5 µM. The dispersion medium was PBS. Each samples was examined after 6 min incubation period at 37 °C.
# [4] = Study of aggregation by UV-Vis spectrophotometry; assay type: physicochemical
# Source text: It has been known for a long while that carotenoids or their derivatives can be prone to supramolecular organization in water or water-organic solvent mixtures. This behaviour is especially interesting because this higher organization can modulate or alter biological properties of carotenoids, as well [40]. A tendency to form supramolecular structures can be tested by recording the UV spectra in an organic solvent and increasing the ratio of water in the sample. […] We have some recent experience of such behaviour of carotenoid-flavonoid conjugates.
# All of our adducts were tested with the method above using tetrahydrofurane (THF) or dimethylsulfoxide (DMSO) with increasing ratio of phosphate-buffered saline (PBS), which was the medium of the antioxidant measurements. […]
# 1. Study of Aggregation by UV-Vis Spectrophotometry
# Starting from THF solutions: each conjugate was dissolved in freshly distilled THF and the solutions were diluted
# either with THF or THF-PBS mixtures to obain final solutions of identical carotenoid concentration. […]
# Figure S1. UV-spectra of 8’-apo-β-carotenol succinate ( 6) ( a) in THF and in THF-PBS mixtures ( 1:1 , 1:3); (b) in DMSO
# Figure S2. UV-spectra of zeaxanthin bissuccinate ( 7) ( a) in THF and in THF-PBS mixtures ( 1:1 , 1:3); (b) in DMSO and
# Figure S3. UV-spectra of zeaxanthin monosuccinate ( 11) ( a) in THF and in THF-PBS mixtures ( 1:1 , 1:3); (b) in DMSO […]
# [5] = 0.3125 μM in PBS from DMSO stock
# [6] = 0.625 μM in PBS from DMSO stock
structure (smiles),measurement,setting,value
"CC1=C(/C=C/C(C)=C/C=C/C(C)=C/C=C/C=C(C)/C=C/C=C(\C)COC(=O)CCC(=O)O)C(C)(C)CCC1 (as salt: succinate) [Compound 6, 8′-Apo-β-carotenol succinate]",melting point,,123 to 124 °C
"CC1=C(/C=C/C(C)=C/C=C/C(C)=C/C=C/C=C(C)/C=C/C=C(C)/C=C/C2=C(C)C[C@@H](OC(=O)CCC(=O)O)CC2(C)C)C(C)(C)C[C@H](OC(=O)CCC(=O)O)C1 (as salt: succinate) [Compound 7, Zeaxanthin bissuccinate]",melting point,,152 to 153 °C
"CC1=C(/C=C/C(C)=C/C=C/C(C)=C/C=C/C=C(C)/C=C/C=C(C)/C=C/C2=C(C)C[C@@H](OC(=O)CCC(=O)O)CC2(C)C)C(C)(C)CCC1 (as salt: succinate) [Compound 8, β-Cryptoxanthin succinate]",melting point,,142 to 143 °C
"CC1=C(/C=C/C(C)=C/C=C/C(C)=C/C=C/C=C(C)/C=C/C=C(C)/C=C/C(=O)[C@]2(C)C[C@@H](OC(=O)CCC(=O)O)CC2(C)C)C(C)(C)C[C@H](OC(=O)CCC(=O)O)C1 (as salt: succinate) [Compound 9, Capsanthin bissuccinate]",melting point,,143 to 144 °C
"CC1=C[C@H](OC(=O)CCC(=O)O)CC(C)(C)[C@H]1/C=C/C(C)=C/C=C/C(C)=C/C=C/C=C(C)/C=C/C=C(C)/C=C/C1=C(C)C[C@@H](OC(=O)CCC(=O)O)CC1(C)C (as salt: succinate) [Compound 10, Lutein bissuccinate]",melting point,,148 to 149 °C
"CC1=C(/C=C/C(C)=C/C=C/C(C)=C/C=C/C=C(C)/C=C/C=C(\C)C=O)C(C)(C)CCC1 [8'-Apo-β-carotenal, 8′-apo-β-carotenal, reference compound]",TEAC from DMSO,[1],1.19
same,TEAC from THF,[1],0.953
same,FRAP,[2],0.443
"CC1=C(/C=C/C(C)=C/C=C/C(C)=C/C=C/C=C(C)/C=C/C=C(C)/C=C/C2=C(C)C[C@@H](O)CC2(C)C)C(C)(C)C[C@H](O)C1 [Compound 2, zeaxanthin, reference compound]",TEAC from DMSO,[1],2.70
same,TEAC from THF,[1],2.016
same,FRAP,[2],0.351
"CC1=C(/C=C/C(C)=C/C=C/C(C)=C/C=C/C=C(C)/C=C/C=C(C)/C=C/C2=C(C)C[C@@H](O)CC2(C)C)C(C)(C)CCC1 [Compound 3, cryptoxanthin, reference compound]",TEAC from DMSO,[1],1.61
same,TEAC from THF,[1],2.062
same,FRAP,[2],0.441
"CC1=C(/C=C/C(C)=C/C=C/C(C)=C/C=C/C=C(C)/C=C/C=C(C)/C=C/C(=O)[C@]2(C)C[C@@H](O)CC2(C)C)C(C)(C)C[C@H](O)C1 [Compound 4, capsanthin, reference compound]",TEAC from DMSO,[1],0.62
same,TEAC from THF,[1],1.036
same,FRAP,[2],0.197
"CC1=C[C@H](O)CC(C)(C)[C@H]1/C=C/C(C)=C/C=C/C(C)=C/C=C/C=C(C)/C=C/C=C(C)/C=C/C1=C(C)C[C@@H](O)CC1(C)C [Compound 5, lutein, reference compound]",TEAC from DMSO,[1],1.02
same,TEAC from THF,[1],1.571
same,FRAP,[2],0.161
"COc1ccc2[nH]cc(CCNC(=O)CNC(=O)CCC(=O)O[C@@H]3CC(C)=C(/C=C/C(C)=C/C=C/C(C)=C/C=C/C=C(C)/C=C/C=C(C)/C=C/C4=C(C)C[C@@H](O)CC4(C)C)C(C)(C)C3)c2c1 [Compound 13, Zeaxanthin-monomelatonin conjugate]",mean size (hydrodynamic diameter),[3]; [5],388.20 nm
same,zeta potential,[3]; [5],16.0 mV
same,PDI,[3]; 0.3125 μM in PBS,0.0336
same,mean size (hydrodynamic diameter),[3]; [6],551.20 nm
same,zeta potential,[3]; [6],15.4 mV
same,PDI,[3]; 0.625 μM in PBS,0.0410
same,mean size (hydrodynamic diameter),[3]; 1.25 μM in PBS from DMSO stock,364.50 nm
same,zeta potential,[3]; 1.25 μM in PBS from DMSO stock,2.2 mV
same,PDI,[3]; 1.25 μM in PBS,0.0270
same,mean size (hydrodynamic diameter),[3]; 2.5 μM in PBS from DMSO stock,638.90 nm
same,zeta potential,[3]; 2.5 μM in PBS from DMSO stock,2.2 mV
same,PDI,[3]; 2.5 μM in PBS,0.0217
same,mean size (hydrodynamic diameter),[3]; 3.75 μM in PBS from DMSO stock,79.01 nm
same,zeta potential,[3]; 3.75 μM in PBS from DMSO stock,0.7 mV
same,PDI,[3]; 3.75 μM in PBS,0.0112
same,mean size (hydrodynamic diameter),[3]; 5 μM in PBS from DMSO stock,565.30 nm
same,zeta potential,[3]; 5 μM in PBS from DMSO stock,1.1 mV
same,PDI,[3]; 5 μM in PBS,0.0311
same,hydrodynamic diameter of the aggregates,[3]; over the concentrations 0.3125–5.00 μM,400–600 nm
same,TEAC from DMSO,[1],1.34
same,TEAC from THF,[1],1.434
same,FRAP,[2],0.152
same,type of aggregates formed,[4]; from THF:aqueous solutions,J-type (head-to-tail) aggregates
same,change of UV spectrum with increasing ratio of PBS,[4]; starting from THF solutions,bathochromic shift
same,melting point,,156 to 157 °C
